Source: ChEMBL document CHEMBL1147418, “Rational design and synthesis of selective BACE-1 inhibitors” (Bioorg Med Chem Lett, 2004)

Experiments:
[1] = target: T1, Beta-secretase 1 (Homo sapiens, UniProt P56817); experiment: Tested for inhibition of Beta-secretase 1 (BACE 1) expressed in insect cell using baculovirus
[2] = target: Cathepsin D (Homo sapiens, UniProt P07339); experiment: Compound was tested for inhibition of cathepsin D
[3] = target: T2, Renin (Homo sapiens, UniProt P00797); experiment: Compound was tested for inhibition of human renin
T2 sequence (P00797 whole entry): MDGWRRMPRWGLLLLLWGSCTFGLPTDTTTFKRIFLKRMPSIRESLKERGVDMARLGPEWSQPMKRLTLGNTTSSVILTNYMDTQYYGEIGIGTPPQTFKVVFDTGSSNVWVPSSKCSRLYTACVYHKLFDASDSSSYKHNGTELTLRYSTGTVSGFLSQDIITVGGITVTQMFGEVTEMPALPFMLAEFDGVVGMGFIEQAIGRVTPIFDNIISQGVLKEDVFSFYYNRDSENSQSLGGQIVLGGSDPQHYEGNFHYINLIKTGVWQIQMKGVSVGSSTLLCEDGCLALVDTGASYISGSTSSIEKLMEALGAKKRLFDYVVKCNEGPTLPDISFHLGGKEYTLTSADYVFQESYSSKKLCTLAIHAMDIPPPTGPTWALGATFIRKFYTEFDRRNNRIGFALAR

[4] = target: T1, Beta-secretase 1; experiment: Compound (>1 mM ) was tested for inhibition of Beta-secretase 1 (BACE 1) expressed in insect cell using baculovirus; Not inhibited

T1 sequence (P56817 whole entry): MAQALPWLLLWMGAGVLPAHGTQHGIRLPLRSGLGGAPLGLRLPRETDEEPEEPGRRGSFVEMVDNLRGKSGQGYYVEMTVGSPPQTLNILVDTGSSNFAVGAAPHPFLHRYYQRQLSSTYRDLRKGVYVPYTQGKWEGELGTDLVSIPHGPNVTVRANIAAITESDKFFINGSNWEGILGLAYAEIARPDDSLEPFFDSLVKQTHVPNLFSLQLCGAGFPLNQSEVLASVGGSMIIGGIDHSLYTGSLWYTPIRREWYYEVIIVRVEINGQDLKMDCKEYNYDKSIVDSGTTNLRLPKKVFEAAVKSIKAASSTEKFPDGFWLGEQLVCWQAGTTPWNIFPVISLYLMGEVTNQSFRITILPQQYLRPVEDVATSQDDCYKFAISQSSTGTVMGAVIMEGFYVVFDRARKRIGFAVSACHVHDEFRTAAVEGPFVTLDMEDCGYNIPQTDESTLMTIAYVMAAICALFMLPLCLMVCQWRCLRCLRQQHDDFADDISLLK
Chain of Cathepsin D (P07339 65-162 limits assumed): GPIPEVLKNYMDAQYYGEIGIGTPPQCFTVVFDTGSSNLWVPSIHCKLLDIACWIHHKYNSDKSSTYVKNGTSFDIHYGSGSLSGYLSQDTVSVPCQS
Chain of Cathepsin D (P07339 169-412 limits assumed): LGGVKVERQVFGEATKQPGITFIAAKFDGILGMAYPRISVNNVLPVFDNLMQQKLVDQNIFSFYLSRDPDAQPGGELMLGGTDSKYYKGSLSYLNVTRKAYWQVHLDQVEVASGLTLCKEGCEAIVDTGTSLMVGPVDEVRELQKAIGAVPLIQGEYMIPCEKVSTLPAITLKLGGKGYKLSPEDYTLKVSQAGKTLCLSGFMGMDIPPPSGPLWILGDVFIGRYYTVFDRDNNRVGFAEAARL

SMILES	Ki [1] [µM]	Ki [2] [µM]	Ki [3] [µM]	Activity [4]
CCC[C@H](C[C@H](O)[C@H](Cc1ccccc1)NC(=O)C[C@H](NC(=O)CC(C)C)C(=O)O)C(=O)NCC(C)C	69.5	28	24.4	–
CC(=O)OCC[C@H](C[C@H](O)[C@H](Cc1ccccc1)NC(=O)C[C@H](NC(=O)CC(C)C)C(=O)O)C(=O)NCC(C)C	2.7	2.2	1.9	–
CC(C)CNC(=O)[C@H](CCO)C[C@H](O)[C@H](Cc1ccccc1)NC(=O)C[C@H](NC(=O)CC(C)C)C(=O)O	1.9	12.5	10.9	–
CC(C)CNC(=O)[C@H](CCC(=O)O)C[C@H](O)[C@H](Cc1ccccc1)NC(=O)C[C@H](NC(=O)CC(C)C)C(=O)O	1.7	79.7	73.6	–
CC(C)CC(=O)N[C@H](C(=O)N[C@H](C(=O)N[C@@H](CC(C)C)[C@@H](O)CC(=O)N[C@@H](C)C(=O)N[C@@H](CC(C)C)[C@@H](O)CC(=O)O)C(C)C)C(C)C	–	–	–	No inhibition
